Holding throughout (format): biochemical
In experiment [1] the target is E. coli polysialyltransferase PST-05 (MalE-PST fusion) (Escherichia coli, UniProt Q57269). The experiment can be described thus: Sialyltransferase activity by capillary electrophoresis, apparent Km estimation. The following applies: CE based assay, 37° C., 50 mM NaHEPES pH 7.5, 10 mM MgCl2, estimated, read-out: apparent Km for GD3-FCHASE. The protocol: (§1) For production of PST proteins, Cells grown in the presence of IPTG were lysed with an Avestin C5 Emulsiflex cell disrupter (Avestin Ottawa, Ontario) and centrifuged at 1000×g to pellet unbroken cells. MalE-PST fusions were purified using amylose resin as described by the manufacturer (New England Biolabs, Mississauga ON).
(§2) Measurement of sialyltransferase activity—Basic assays were performed at 37° C. in 10-40 μL volumes containing 50 mM NaHEPES pH 7.5, 10 mM MgCl2, 0.1-50 mM CMP-NeuAc, 0.01-5 mM labelled acceptor and various amounts of enzyme. Buffer optimization assays were done with the following buffers: 20 mM citrate-phosphate pH 6.0-8.0, 50 mM Na2PO4 pH 6.5-7.5, 50 mM NaHEPES pH 6.5-8.0, 50 mM TrisHCl pH 7.5-9.0. Metal optimization assays were performed with 10 mM CaCl2, CoCl2, MgCl2, MnCl2, NiCl2, or ZnSO4. For the magnesium titration, endogenous Mg^2+ was removed by addition of EDTA and then dialyzed against 20 mM TrisHCl pH 7.5. Reactions were stopped man equal volume of 50% acetonitrile, 1% sodium dodecylsulphate, 10 mM EDTA. Analysis of actions was done by capillary electrophoresis as previously described. See, e.g., Wakarchuk, W. W. and Cunningham, A. M., Methods Mol. Biol., 213:263-274 (2003)).
(§3) Acceptor synthesis—The GM3/GD3/GT3-FCHASE acceptors were synthesized from Lac-FCHASE on a milligram scale. […]

Experiment [2] addresses T1, N. meningitidis polysialyltransferase PST-13 (MalE-PST fusion) (Neisseria meningitidis, UniProt Q51281). The experiment is described as above. The conditions noted are these: CE based assay, 37° C., 50 mM NaHEPES pH 7.5, 10 mM MgCl2, estimated, read-out: apparent Km for GD3-FCHASE. Here is the method:
as §1, §2, §3

Experiment [3] concerns the target T1, N. meningitidis polysialyltransferase PST-13 (MalE-PST fusion). The experiment can be described thus: Acceptor inhibition in kinetic assays. The conditions noted are these: GD3-FCHASE at concentrations over 2 mM. The protocol:
as §2
Some degradation of the starting material was observed and was more significant at high acceptor concentrations (5 mM).

As for “NeuAc-α2,8-NeuAc-α2,3-Gal-β1,4-Glc-β-FCHASE [GD3-FCHASE]”, the Km was 145 µM in experiment [1] and 120 µM in experiment [2]. The “acceptor inhibition (productivity of the enzyme)” value in experiment [3] is on record as “decreased significantly”.

The Km is the substrate concentration at which the rate is half of its maximum.

These data come from US8257949B2, “Self-priming polysialyltransferase” (National Research Council of Canada, priority 2006, dated 2012).
